Measurements as given in BindingDB's records for doi:10.1021/jm980001q (G.D. Searle And, 1998).
pKi: −log10 of the molar value.

Target: T1, Glycylpeptide N-tetradecanoyltransferase (Candida albicans (strain SC5314 / ATCC MYA-2876), UniProt P30418)
T1 sequence (P30418 whole entry): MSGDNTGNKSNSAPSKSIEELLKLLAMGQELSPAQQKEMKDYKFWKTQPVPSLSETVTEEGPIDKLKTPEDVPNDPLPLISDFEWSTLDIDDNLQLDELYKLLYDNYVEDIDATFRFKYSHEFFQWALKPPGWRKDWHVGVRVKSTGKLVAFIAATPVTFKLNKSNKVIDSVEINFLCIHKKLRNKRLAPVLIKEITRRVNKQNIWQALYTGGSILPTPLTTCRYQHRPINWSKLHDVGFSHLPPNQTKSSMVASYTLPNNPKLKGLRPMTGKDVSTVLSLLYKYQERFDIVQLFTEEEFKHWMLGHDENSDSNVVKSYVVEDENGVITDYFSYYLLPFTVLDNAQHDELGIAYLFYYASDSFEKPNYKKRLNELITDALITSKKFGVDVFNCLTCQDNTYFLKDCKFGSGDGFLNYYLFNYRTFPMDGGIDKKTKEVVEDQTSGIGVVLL
Assay: The Compound was tested for the inhibition potency against Candida albicans N-myristoyltransferase (NMT) and reported as apparent Ki

With H-ALYASKLS-NH2 the pKi was 4.82.
